According to US11434212B2, “Bicyclic compound as a caspase inhibitor” (CHIA TAI TIANQING PHARMACEUTICAL GROUP CO., LTD., priority 2017, dated 2022):

Experiments:
Format in all cases: biochemical
Details in all cases: fluorogenic substrate 50 μM; test concentrations 1000 nM to 0.32 nM
Caspase-1 = biological target: T1, Caspase-1 (Homo sapiens, UniProt P29466); assay: In vitro inhibitory activity on Caspase-1 (BioVision Caspase-1 Inhibitor Screening Kit)
T1 construct: purchased BioVision K151-100
T1 sequence (P29466 120-297 limits assumed): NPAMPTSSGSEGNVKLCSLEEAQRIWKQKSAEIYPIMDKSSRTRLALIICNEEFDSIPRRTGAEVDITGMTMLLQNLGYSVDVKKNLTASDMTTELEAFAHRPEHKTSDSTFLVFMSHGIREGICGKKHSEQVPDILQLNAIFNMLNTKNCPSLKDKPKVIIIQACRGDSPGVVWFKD
T1 sequence (P29466 317-404 limits assumed): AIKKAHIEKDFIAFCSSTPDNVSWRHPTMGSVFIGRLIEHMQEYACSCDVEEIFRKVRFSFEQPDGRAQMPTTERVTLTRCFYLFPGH
Procedure: (§1) Caspase Inhibitor Screening Kit for BioVision was used in this experiment to test the inhibitory activity of the test compounds on Caspase.
Caspase-1 Inhibitor Screening Kit (BioVision #K151-100)
(§2) Note: Each caspase enzymatic experiment uses the reagents in corresponding kit thereof. Each enzyme was dissolved in 550 μl of the corresponding 2× reaction buffer, sub-packed and stored at −80° C., respectively.
(§3) 1) The compound was diluted to a 200*test concentration with DMSO via the multiple dilution, then to a 2*test concentration with ddH2O, and added to a 384-well experimental plate at 12.5 μl per well. Test compounds and control compounds were tested at 6 concentration points, test concentrations ranging from 1000 nM to 0.32 nM. The ddH2O containing 1% DMSO was added to the 0% inhibition control well, and a high concentration of the control compound was added to the 100% inhibition control well (final concentration: 5 μM).
(§4) 2) 2× reaction buffer containing 10 mM DTT was prepared. The enzyme caspase stock solution was diluted 5-fold with 2× reaction buffer containing 10 mM DTT and added to a 384-well experimental plate at 6.25 μl per well. After being mixed, the enzyme and compounds were incubated at 37° C. for 30 minutes.
(§5) 3) The fluorogenic substrate of the enzyme caspase was diluted 5-fold with 2× reaction buffer containing 10 mM DTT, and then added to a 384-well experimental plate at 6.25 μl per well. The total reaction volume was 25 μl, the final concentration of the substrate was 50 μM, and the final concentration of DMSO was 0.5%. After the substrate was added, the 384-well experimental plate was incubated at 37° C. for 30 minutes.
(§6) 4) The fluorescence intensity (excitation light wavelength was 400 nm, emission light wavelength was 505 nm) was measured by using a multi-function microplate reader. Fluorescence intensity was used to calculate the inhibitory effect of the compounds on Caspase. GraphPad Prism software was used for fitting compound inhibition curves and calculating IC50 values.

Caspase-3 = biological target: T2, Caspase-3 (Homo sapiens, UniProt P42574); assay: In vitro inhibitory activity on Caspase-3 (BioVision Caspase-3 Inhibitor Screening Kit)
T2 construct: purchased BioVision K153-100
T2 sequence (P42574 29-175 limits assumed): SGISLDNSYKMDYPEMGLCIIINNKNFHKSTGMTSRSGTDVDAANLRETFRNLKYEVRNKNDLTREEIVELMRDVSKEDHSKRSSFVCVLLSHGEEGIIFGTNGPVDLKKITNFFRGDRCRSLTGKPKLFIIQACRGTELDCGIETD
T2 sequence (P42574 176-277 limits assumed): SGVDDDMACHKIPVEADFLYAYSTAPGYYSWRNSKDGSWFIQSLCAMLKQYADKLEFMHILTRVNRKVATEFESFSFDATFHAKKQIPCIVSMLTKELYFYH
Procedure: as §1
Caspase-3 Inhibitor Screening Kit (BioVision #K153-100)
as §2, §3, §4, §5, §6

Caspase-8 = biological target: T3, Caspase-8 (Homo sapiens, UniProt Q14790); assay: In vitro inhibitory activity on Caspase-8 (BioVision Caspase-8 Inhibitor Screening Kit)
T3 construct: purchased BioVision K158-100
T3 sequence (Q14790 217-374 limits assumed): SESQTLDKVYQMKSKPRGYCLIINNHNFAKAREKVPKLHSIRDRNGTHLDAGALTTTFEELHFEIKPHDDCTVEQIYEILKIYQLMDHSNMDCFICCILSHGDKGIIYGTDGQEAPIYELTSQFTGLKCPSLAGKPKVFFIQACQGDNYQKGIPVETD
T3 sequence (Q14790 385-479 limits assumed): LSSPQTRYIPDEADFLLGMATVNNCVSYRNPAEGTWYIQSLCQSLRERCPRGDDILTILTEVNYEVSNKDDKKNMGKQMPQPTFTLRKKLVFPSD
Procedure: as §1
Caspase-8 Inhibitor Screening Kit (BioVision #K158-100)
as §2, §3, §4, §5, §6

Row | Compound | IC50 (Caspase-1) | IC50 (Caspase-3) | IC50 (Caspase-8)
1 | C[C@H](NC(=O)c1cc(-c2ccccc2)no1)C(=O)N[C@@H](CC(=O)O)C(=O)COc1c(F)c(F)cc(F)c1F [Example 8] | 5.5 nM | 21.8 nM | 18 nM
2 | C[C@H](NC(=O)c1cc(-c2ccccc2)n[nH]1)C(=O)N[C@@H](CC(=O)O)C(=O)COc1c(F)c(F)cc(F)c1F [Example 4] | 4.1 nM | 11.4 nM | 11.7 nM
3 | C[C@H](NC(=O)c1ncc(-c2ccccc2)s1)C(=O)N[C@@H](CC(=O)O)C(=O)COc1c(F)c(F)cc(F)c1F [Example 2] | 5.3 nM | 29.6 nM | 24.6 nM
4 | C[C@H](NC(=O)c1cc(-c2ccccc2F)n[nH]1)C(=O)N[C@@H](CC(=O)O)C(=O)COc1c(F)c(F)cc(F)c1F [Example 5] | 3.9 nM | 13.7 nM | 16.8 nM
5 | C[C@H](NC(=O)c1coc(-c2ccccc2)n1)C(=O)N[C@@H](CC(=O)O)C(=O)COc1c(F)c(F)cc(F)c1F [Example 7] | 6.9 nM | 20.2 nM | 30 nM
6 | C[C@H](NC(=O)c1cc(-c2ccccc2C(F)(F)F)on1)C(=O)N[C@@H](CC(=O)O)C(=O)COc1c(F)c(F)cc(F)c1F [Example 11] | 9.2 nM | 30 nM | 22.6 nM
